Experimental data: ChEMBL document CHEMBL5154804, “Species-Selective Targeting of Fungal Hsp90: Design, Synthesis, and Evaluation of Novel 4,5-Diarylisoxazole Derivatives for the Combination Treatment of Azole-Resistant Candidiasis” (J Med Chem, 2022)
Calls of active or inactive are those of the source. No cut-off for these calls is given here.

How the values were obtained:
HepG2 = assay: Cytotoxicity against human HepG2 cell assessed as inhibition of cell growth after 24 hrs by MTT assay; assay type: functional, cell-based; conditions: HepG2, 24 h
Candida albicans [1] = assay: Potentiation of fluconazole-induced antifungal activity against fluconazole-resistant Candida albicans 904 assessed as fluconazole MIC by checker board microdilution assay; assay type: functional
Candida albicans [2] = assay: Potentiation of fluconazole-induced antifungal activity against fluconazole-resistant Candida albicans 103 assessed as fluconazole MIC by checker board microdilution assay; assay type: functional
Candida albicans [3] = assay: Antifungal activity against fluconazole-resistant Candida albicans 103 assessed as inhibition of fungal growth by checker board microdilution assay; assay type: functional
Candida albicans [4] = assay: Antifungal activity against fluconazole-resistant Candida albicans 904 assessed as inhibition of fungal growth by checker board microdilution assay; assay type: functional
[5] = Metabolic stability in human liver microsomes assessed as intrinsic clearance in presence of NADPH cofactor under shaking condition for 10 mins measured after 5 to 60 mins by LC-MS/MS analysis; assay type: ADME, Microsome; conditions: time 15-70 min
[6] = Cytotoxicity against mouse BV-2 cell assessed as inhibition of cell growth after 24 hrs by MTT assay; assay type: toxicity, cell-based; conditions: BV-2 cells
Candida albicans [7] = assay: Synergistic antibiofilm activity in Candida albicans 904 assessed as downregulation of ALS3 at 32 ug/ml incubated for 24 hrs in presence of fluconazole by RT-PCR analysis; assay type: functional, organism-based; conditions: dose 32.0 µg/ml
[8] = Stability in human plasma assessed as compound remaining at 120 mins by LC-MS/MS analysis; assay type: ADME, cell-free; conditions: read-out: Stability
Candida albicans [9] = assay: Antifungal activity against fluconazole-resistant Candida albicans 100 assessed as inhibition of fungal growth by checker board microdilution assay; assay type: functional
Candida albicans [10] = assay: Synergetic antifungal activity against fluconazole-resistant Candida albicans 904 assessed as fractional inhibitory concentration index in presence of fluconazole by checker board microdilution assay; assay type: functional
Candida albicans [11] = assay: Synergistic antifungal activity against fluconazole-resistant Candida albicans 100 assessed as inhibition of fungal growth in presence of fluconazole by checker board microdilution assay; assay type: functional
Candida albicans [12] = assay: Synergetic antifungal activity against fluconazole-resistant Candida albicans 100 assessed as fractional inhibitory concentration index in presence of fluconazole by checker board microdilution assay; assay type: functional
Candida albicans [13] = assay: Synergistic antifungal activity against fluconazole-resistant Candida albicans 632 assessed as inhibition of fungal growth in presence of fluconazole by checker board microdilution assay; assay type: functional
Candida albicans [14] = assay: Antifungal activity against fluconazole-resistant Candida albicans 901 assessed as inhibition of fungal growth by checker board microdilution assay; assay type: functional
Candida albicans [15] = assay: Synergistic antifungal activity against fluconazole-resistant Candida albicans 311 assessed as inhibition of fungal growth in presence of fluconazole by checker board microdilution assay; assay type: functional
Candida albicans [16] = assay: Synergistic antibiofilm activity against Candida albicans 904 assessed as inhibition of […] metabolism within the biofilm in presence of fluconazole after 48 hrs by XTT reduction assay; assay type: functional
Candida albicans [17] = assay: Antibiofilm activity against Candida albicans 904 assessed as inhibition of […] metabolism within the biofilm after 48 hrs by XTT reduction assay; assay type: functional
Candida albicans [18] = assay: Ratio of MFC for Candida albicans 904 to MIC for Candida albicans 904 in presence of fluconazole; assay type: functional
CYP2D6 = CYP2D6 (Homo sapiens, UniProt P10635); assay: Inhibition of CYPD6 in human liver microsome at 10 uM using dextromethorphan as substrate incubated for 10 mins in presence of NADPH cofactor by LC-MS/MS analysis; assay type: ADME; conditions: liver microsomes, probe dextromethorphan
Chain of CYP2D6 (P10635 whole entry): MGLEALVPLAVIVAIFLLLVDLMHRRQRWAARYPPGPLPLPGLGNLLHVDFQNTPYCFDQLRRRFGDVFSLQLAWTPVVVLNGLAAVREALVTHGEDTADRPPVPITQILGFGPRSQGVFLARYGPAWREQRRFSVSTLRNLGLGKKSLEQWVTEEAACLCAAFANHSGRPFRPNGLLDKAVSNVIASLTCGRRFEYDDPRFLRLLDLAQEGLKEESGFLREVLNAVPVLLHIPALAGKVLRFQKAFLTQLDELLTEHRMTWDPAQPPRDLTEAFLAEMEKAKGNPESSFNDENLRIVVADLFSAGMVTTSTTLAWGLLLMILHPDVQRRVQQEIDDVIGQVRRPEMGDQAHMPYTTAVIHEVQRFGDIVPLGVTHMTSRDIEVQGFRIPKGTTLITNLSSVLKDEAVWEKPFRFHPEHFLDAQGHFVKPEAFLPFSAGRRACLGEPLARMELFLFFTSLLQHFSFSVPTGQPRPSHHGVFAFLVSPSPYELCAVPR

Candida albicans [19] = assay: Fungicidal activity against Candida albicans 904 assessed as colony forming at 4 times MIC in presence of fluconazole incubated for 48 hrs by time-kill curve assay; assay type: functional
Candida albicans [20] = assay: Potentiation of fluconazole-induced antifungal activity against fluconazole-resistant Candida albicans 901 assessed as fluconazole MIC by checker board microdilution assay; assay type: functional
CYP2C19 = CYP2C19 (Homo sapiens, UniProt P33261); assay: Inhibition of CYP2C19 in human liver microsome at 10 uM using S-mephenytoin as substrate incubated for 10 mins in presence of NADPH cofactor by LC-MS/MS analysis; assay type: ADME; conditions: liver microsomes, probe S-mephenytoin
Chain of CYP2C19 (P33261 whole entry): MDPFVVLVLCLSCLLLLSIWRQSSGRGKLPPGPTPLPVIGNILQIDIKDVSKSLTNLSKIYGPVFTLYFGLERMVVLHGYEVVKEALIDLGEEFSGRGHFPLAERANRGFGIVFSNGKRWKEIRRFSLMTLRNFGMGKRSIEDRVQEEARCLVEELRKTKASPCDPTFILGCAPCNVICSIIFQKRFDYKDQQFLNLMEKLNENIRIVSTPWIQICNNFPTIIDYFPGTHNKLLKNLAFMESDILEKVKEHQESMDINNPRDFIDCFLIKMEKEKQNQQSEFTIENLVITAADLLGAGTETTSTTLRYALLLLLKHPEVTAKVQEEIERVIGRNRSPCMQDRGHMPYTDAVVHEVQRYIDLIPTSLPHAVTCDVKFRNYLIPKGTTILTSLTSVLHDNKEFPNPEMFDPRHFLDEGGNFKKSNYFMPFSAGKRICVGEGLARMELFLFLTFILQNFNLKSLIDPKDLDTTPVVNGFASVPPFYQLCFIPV

[21] = Cytotoxicity against mouse NIH3T3 cell assessed as inhibition of cell growth after 24 hrs by MTT assay; assay type: toxicity, cell-based; conditions: NIH3T3 cells
Candida albicans [22] = assay: Antibiofilm activity against Candida albicans 904 assessed as inhibition of […] metabolism within the biofilm after 24 hrs by XTT reduction assay; assay type: functional
CYP1A2 = molecular target: T1, CYP1A2 (Homo sapiens, UniProt P05177); assay: Inhibition of CYP1A2 in human liver microsome at 10 uM using phenacetin as substrate incubated for 10 mins in presence of NADPH cofactor by LC-MS/MS analysis; assay type: ADME; conditions: liver microsomes, probe phenacetin
T1 sequence (P05177 whole entry): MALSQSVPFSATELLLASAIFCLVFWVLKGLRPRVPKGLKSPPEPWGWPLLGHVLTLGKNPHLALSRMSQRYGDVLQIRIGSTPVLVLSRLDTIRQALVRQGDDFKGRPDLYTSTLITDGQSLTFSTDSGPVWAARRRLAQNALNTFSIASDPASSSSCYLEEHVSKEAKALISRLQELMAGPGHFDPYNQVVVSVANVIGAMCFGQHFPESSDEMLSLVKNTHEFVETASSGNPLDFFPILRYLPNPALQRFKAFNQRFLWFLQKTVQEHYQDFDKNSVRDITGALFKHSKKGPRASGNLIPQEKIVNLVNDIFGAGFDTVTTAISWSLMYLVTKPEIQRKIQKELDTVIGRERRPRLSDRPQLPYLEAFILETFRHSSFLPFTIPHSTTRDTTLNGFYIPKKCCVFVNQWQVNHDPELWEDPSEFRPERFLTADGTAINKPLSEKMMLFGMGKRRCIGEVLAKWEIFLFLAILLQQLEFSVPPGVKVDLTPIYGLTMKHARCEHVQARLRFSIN

Candida albicans [23] = assay: Synergetic antifungal activity against fluconazole-resistant Candida albicans 901 assessed as fractional inhibitory concentration index in presence of fluconazole by checker board microdilution assay; assay type: functional
Candida albicans [24] = assay: Potentiation of fluconazole-induced antifungal activity against fluconazole-resistant Candida albicans 632 assessed as fluconazole MIC by checker board microdilution assay; assay type: functional
Candida albicans [25] = assay: Synergetic antifungal activity against fluconazole-resistant Candida albicans 632 assessed as fractional inhibitory concentration index in presence of fluconazole by checker board microdilution assay; assay type: functional
Candida albicans [26] = assay: Synergistic antifungal activity against fluconazole-resistant Candida albicans 901 assessed as inhibition of fungal growth in presence of fluconazole by checker board microdilution assay; assay type: functional
Candida albicans [27] = assay: Synergistic antibiofilm activity in Candida albicans 904 assessed as downregulation of CPH1 at 32 ug/ml incubated for 24 hrs in presence of fluconazole by RT-PCR analysis; assay type: functional, organism-based; conditions: dose 32.0 µg/ml
Candida albicans [28] = assay: Antifungal activity against fluconazole-resistant Candida albicans 311 assessed as inhibition of fungal growth by checker board microdilution assay; assay type: functional
Candida albicans [29] = assay: Synergistic antibiofilm activity against Candida albicans 904 assessed as inhibition of […] metabolism within the biofilm in presence of fluconazole after 24 hrs by XTT reduction assay; assay type: functional
Candida albicans [30] = assay: Induction of morphological changes in Candida albicans 904 assessed as hyphal formation by measuring TEC1 level incubated for 4 hrs in presence of fluconazole; assay type: functional, organism-based
Candida albicans [31] = assay: Induction of morphological changes in Candida albicans 904 assessed as hyphal formation by measuring CPH1 level incubated for 4 hrs in presence of fluconazole; assay type: functional, organism-based

Structure (SMILES)	IC50 (HepG2) [µM]	MIC80 (Candida albicans [1]) [µg/mL]	MIC80 (Candida albicans [2]) [µg/mL]	MIC80 (Candida albicans [3]) [µg/mL]	MIC80 (Candida albicans [4]) [µg/mL]	CLint [5] [mL/min/kg]	IC50 at 24 h [6] [µM]	Activity (Candida albicans [7])	remaining at 2 h [8] [%]	MIC80 (Candida albicans [9]) [µg/mL]	fractional inhibitory concentration index (FICI) (Candida albicans [10])	MIC80 (Candida albicans [11]) [µg/mL]	fractional inhibitory concentration index (FICI) (Candida albicans [12])	MIC80 (Candida albicans [13]) [µg/mL]	MIC80 (Candida albicans [14]) [µg/mL]	MIC80 (Candida albicans [15]) [µg/mL]	MIC50 (Candida albicans [16]) [µg/mL]	MIC50 (Candida albicans [17]) [µg/mL]	Ratio (Candida albicans [18])	inhibition at 10 min, 10 µM (CYP2D6) [%]	also measured
CCNC(=O)c1noc(-c2cc(-c3ccc(C)cc3)c(O)cc2O)c1-c1ccc(CN2CCOCC2)cc1	17.4	2	2	> 64	> 64	38.9	10.3	Active	110	> 64	0.035	0.125	0.033	0.125	> 64	0.25	1	> 64	1	36.9	MFC (Candida albicans [19]): 0.25 µg/mL; MIC80 (Candida albicans [20]): 1 µg/mL; inhibition at 10 min, 10 µM (CYP2C19): 22.2%; IC50 at 24 h [21]: 21.3 µM; MIC50 (Candida albicans [22]): > 64 µg/mL; inhibition at 10 min, 10 µM (CYP1A2): 8%; fractional inhibitory concentration index (FICI) (Candida albicans [23]): 0.018; MIC80 (Candida albicans [24]): 2 µg/mL; fractional inhibitory concentration index (FICI) (Candida albicans [25]): 0.033; MIC80 (Candida albicans [26]): 0.125 µg/mL; Activity (Candida albicans [27]): Active; MIC80 (Candida albicans [28]): > 64 µg/mL; MIC50 (Candida albicans [29]): 0.25 µg/mL; Activity (Candida albicans [30]): Active; Activity (Candida albicans [31]): Active
CNC(=O)c1noc(-c2cc(-c3ccc(C)cc3)c(O)cc2O)c1-c1ccc(CN2CCOCC2)cc1	> 50	1	2	> 64	> 64	50.3	11.1	Active	92.8	> 64	0.02	0.25	0.035	0.5	> 64	2	4	> 64	2	86.3	MFC (Candida albicans [19]): 0.5 µg/mL; MIC80 (Candida albicans [20]): 2 µg/mL; inhibition at 10 min, 10 µM (CYP2C19): 18.6%; IC50 at 24 h [21]: 8.63 µM; MIC50 (Candida albicans [22]): > 64 µg/mL; inhibition at 10 min, 10 µM (CYP1A2): 9.9%; fractional inhibitory concentration index (FICI) (Candida albicans [23]): 0.039; MIC80 (Candida albicans [24]): 0.5 µg/mL; fractional inhibitory concentration index (FICI) (Candida albicans [25]): 0.016; MIC80 (Candida albicans [26]): 0.5 µg/mL; Activity (Candida albicans [27]): Active; MIC80 (Candida albicans [28]): > 64 µg/mL; MIC50 (Candida albicans [29]): 1 µg/mL; Activity (Candida albicans [30]): Active; Activity (Candida albicans [31]): Active
